The values below are quoted from earlier work in patent US12358983B2, “Combination of anti CD19 antibody with a BCL-2 inhibitor and uses thereof” (Incyte Corporation, priority 2016, dated 2025).

The subject of data set [1] is primary cells from patients with B-cell malignancies. The settings on record: in vitro studies; cited from earlier work.
For data set [2] the following is noted: mouse, in vivo; cited from earlier work.
For data set [3], the system named is lymphoma and other blood cancers. The settings on record: in vivo; cited from earlier work.

For `CN(C)CC[C@H](CSc1ccccc1)Nc1ccc(S(=O)(=O)NC(=O)c2ccc(N3CCN(Cc4ccccc4-c4ccc(Cl)cc4)CC3)cc2)cc1[N+](=O)[O-]` [ABT-737], the “Sensitivity of primary cells (in words)” value in data set [1] was “sensitive”. In addition, in data set [2], the “Effect in animal models (in words)” value is “improves survival, causes tumor regression and cures a high percentage of mice”. For the same compound, in data set [3], the “Efficacy in patient xenografts (in words)” value is recorded as “showed efficacy”.
